According to the kinase profiling compilation of Christmann-Franck et al. (2016):
Where “and” joins values, the source holds several entries; their conditions need not be identical. Equal entries are not always repeated.

How the values were obtained:
Test in all cases: radiometric filter-binding kinase assay
[1] = system: AKT1 (human), P31749 [S473D]
BRSK2 (human) = BRSK2 (human) (UniProt Q8IWQ3)
EEF2K (human) = EEF2K (human) (UniProt O00418)
EPHA4 (human) = EPHA4 (human) (UniProt P54764)
EPHB1 (human) = EPHB1 (human) (UniProt P54762)
EPHB2 (human) = EPHB2 (human) (UniProt P29323)
EPHB2 (human), sequence (P29323 whole entry, looked up): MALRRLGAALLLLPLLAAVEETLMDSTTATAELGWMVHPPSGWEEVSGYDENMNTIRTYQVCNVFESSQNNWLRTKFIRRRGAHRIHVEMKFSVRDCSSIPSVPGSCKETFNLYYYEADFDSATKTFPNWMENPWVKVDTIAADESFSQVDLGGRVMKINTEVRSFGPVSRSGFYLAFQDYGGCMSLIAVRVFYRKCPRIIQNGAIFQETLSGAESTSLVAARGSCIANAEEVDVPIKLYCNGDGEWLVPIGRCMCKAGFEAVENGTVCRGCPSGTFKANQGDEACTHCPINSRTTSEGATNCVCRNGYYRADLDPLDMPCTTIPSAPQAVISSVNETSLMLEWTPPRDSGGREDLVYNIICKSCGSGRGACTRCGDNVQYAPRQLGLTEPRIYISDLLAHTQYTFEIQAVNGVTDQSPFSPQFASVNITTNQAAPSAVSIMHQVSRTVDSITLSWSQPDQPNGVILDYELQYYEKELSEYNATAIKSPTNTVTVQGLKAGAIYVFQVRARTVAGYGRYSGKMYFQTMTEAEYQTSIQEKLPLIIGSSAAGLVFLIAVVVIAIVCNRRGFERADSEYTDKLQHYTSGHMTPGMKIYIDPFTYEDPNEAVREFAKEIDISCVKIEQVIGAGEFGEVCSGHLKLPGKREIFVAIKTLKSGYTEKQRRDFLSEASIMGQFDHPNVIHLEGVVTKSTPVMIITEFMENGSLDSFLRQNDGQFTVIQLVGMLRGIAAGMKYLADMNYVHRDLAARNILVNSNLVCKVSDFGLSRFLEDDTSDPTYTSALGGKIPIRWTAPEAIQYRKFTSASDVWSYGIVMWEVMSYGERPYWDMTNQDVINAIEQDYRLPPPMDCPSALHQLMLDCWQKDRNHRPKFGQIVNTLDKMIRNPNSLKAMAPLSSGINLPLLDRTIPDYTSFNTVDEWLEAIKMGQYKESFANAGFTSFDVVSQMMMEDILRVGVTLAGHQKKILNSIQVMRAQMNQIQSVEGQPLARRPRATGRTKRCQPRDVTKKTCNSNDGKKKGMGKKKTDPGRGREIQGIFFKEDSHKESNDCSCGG

EPHB3 (human) = EPHB3 (human) (UniProt P54753)
ERBB4 (human) = ERBB4 (human) (UniProt Q15303)
FGFR1 (human) = FGFR1 (human) (UniProt P11362)
FLT1 (human) = FLT1 (human) (UniProt P17948)
HIPK1 (human) = HIPK1 (human) (UniProt Q86Z02)
HIPK1 (human), sequence (Q86Z02 whole entry, looked up): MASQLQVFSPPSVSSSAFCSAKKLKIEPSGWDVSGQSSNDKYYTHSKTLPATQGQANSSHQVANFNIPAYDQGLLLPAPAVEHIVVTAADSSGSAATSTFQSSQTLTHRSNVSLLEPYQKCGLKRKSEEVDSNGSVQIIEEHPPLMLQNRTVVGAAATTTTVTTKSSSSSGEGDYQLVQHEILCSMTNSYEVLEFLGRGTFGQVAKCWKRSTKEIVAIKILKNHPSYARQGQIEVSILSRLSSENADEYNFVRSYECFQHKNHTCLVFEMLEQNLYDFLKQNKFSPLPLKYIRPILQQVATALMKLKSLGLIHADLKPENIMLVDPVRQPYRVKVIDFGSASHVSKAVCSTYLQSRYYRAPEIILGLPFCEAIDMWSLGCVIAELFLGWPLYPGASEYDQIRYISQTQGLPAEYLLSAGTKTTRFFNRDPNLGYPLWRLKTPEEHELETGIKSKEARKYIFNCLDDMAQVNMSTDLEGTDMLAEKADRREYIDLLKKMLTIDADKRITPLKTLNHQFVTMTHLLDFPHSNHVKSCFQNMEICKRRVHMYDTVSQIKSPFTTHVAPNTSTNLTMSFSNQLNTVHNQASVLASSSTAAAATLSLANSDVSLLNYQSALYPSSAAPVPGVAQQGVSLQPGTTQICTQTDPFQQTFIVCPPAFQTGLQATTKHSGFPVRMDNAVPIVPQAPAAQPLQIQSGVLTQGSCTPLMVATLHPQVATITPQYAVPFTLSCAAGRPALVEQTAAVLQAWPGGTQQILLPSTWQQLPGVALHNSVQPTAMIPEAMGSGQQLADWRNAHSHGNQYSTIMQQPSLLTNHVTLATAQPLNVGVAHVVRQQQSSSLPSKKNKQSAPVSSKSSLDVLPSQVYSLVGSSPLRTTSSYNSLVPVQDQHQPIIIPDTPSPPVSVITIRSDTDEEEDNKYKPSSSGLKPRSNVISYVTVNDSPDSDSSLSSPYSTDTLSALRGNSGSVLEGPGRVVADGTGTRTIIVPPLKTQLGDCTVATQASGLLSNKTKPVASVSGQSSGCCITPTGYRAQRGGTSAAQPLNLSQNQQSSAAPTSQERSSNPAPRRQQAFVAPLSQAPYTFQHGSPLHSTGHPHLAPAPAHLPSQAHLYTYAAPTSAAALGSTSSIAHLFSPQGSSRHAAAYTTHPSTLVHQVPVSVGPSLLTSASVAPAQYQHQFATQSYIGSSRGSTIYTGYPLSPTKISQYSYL

IKBKE (human) = IKBKE (human) (UniProt Q14164)
INSR (human) = INSR (human) (UniProt P06213)
IRAK1 (human) = IRAK1 (human) (UniProt P51617)
MAPK1 (human) = MAPK1 (human) (UniProt P28482)
MAPK12 (human) = MAPK12 (human) (UniProt P53778)
MAPK13 (human) = MAPK13 (human) (UniProt O15264)
MAPK13 (human), sequence (O15264 whole entry, looked up): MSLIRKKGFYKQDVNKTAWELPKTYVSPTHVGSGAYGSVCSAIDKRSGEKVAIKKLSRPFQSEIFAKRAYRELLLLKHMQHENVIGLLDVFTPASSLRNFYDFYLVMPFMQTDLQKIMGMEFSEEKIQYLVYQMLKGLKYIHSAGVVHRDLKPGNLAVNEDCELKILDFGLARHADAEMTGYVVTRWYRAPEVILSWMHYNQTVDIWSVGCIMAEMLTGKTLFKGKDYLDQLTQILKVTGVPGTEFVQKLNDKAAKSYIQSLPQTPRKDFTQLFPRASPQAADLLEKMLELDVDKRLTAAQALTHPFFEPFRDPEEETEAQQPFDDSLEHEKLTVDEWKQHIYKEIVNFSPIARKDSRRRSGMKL

MAPK8 (human) = MAPK8 (human) (UniProt P45983)
MARK2 (human) = MARK2 (human) (UniProt Q7KZI7)
MARK4 (human) = MARK4 (human) (UniProt Q96L34)
[2] = system: PAK2 (human), Q13177 [T402E]
PAK4 (human) = PAK4 (human) (UniProt O96013)
PDPK1 (human) = PDPK1 (human) (UniProt O15530)
PHKG1 (human) = PHKG1 (human) (UniProt Q16816)
PRKAA1 or PRKAA2 (rat) = details: accession and sequence are those of the human protein
PRKCG (human) = PRKCG (human) (UniProt P05129)
[3] = system: SGK1 (human), O00141 [S422D]
SGK1 (human), O00141 [S422D], sequence (O00141 whole entry S422D, looked up): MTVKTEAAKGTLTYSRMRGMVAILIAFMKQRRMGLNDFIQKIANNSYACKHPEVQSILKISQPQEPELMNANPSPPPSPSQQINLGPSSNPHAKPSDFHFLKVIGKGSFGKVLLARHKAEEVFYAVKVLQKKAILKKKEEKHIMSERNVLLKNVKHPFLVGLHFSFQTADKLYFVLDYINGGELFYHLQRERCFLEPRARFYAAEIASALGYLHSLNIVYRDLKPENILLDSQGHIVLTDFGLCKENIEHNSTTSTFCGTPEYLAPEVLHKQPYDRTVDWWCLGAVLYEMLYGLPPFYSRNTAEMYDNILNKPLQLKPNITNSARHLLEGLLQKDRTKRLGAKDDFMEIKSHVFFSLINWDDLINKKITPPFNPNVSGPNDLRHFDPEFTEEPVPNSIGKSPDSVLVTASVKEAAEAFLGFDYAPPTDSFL

SRC (human) = SRC (human) (UniProt P12931)
SRC (human), sequence (P12931 whole entry, looked up): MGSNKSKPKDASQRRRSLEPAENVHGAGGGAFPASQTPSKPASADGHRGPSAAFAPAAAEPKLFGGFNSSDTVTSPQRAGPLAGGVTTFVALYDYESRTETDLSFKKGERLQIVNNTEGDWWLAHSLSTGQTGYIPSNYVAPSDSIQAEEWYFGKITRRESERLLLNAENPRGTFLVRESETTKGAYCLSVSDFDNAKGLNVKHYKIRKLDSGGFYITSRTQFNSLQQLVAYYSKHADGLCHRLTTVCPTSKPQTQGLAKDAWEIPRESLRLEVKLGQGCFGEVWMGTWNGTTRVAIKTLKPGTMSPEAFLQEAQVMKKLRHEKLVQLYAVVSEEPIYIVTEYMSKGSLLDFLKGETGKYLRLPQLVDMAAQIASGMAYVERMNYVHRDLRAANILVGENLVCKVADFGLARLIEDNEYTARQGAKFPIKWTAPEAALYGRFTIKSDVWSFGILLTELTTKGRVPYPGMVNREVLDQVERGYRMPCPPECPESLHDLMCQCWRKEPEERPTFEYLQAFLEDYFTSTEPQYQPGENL

BRSK2 (human), sequence (Q8IWQ3 whole entry, looked up): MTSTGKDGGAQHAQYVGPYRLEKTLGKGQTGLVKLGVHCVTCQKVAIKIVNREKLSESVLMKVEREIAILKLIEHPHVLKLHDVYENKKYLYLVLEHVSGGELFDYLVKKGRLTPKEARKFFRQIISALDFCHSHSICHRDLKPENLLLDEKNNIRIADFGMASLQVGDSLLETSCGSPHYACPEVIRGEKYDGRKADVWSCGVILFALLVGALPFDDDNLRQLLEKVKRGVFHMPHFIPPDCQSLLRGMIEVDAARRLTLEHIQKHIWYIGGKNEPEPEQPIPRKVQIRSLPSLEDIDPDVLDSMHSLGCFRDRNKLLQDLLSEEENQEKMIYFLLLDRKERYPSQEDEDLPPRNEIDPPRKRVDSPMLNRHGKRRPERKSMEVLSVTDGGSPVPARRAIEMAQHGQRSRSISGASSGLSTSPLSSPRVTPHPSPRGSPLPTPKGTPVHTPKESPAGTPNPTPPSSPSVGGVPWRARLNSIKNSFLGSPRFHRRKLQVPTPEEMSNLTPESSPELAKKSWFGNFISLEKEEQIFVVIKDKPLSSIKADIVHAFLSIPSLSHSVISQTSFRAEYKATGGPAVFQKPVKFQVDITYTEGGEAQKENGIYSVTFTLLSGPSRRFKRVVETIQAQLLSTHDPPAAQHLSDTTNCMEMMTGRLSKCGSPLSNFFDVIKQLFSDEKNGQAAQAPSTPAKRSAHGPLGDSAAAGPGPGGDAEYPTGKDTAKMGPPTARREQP
AKT1 (human), P31749 [S473D], sequence (P31749 whole entry S473D, looked up): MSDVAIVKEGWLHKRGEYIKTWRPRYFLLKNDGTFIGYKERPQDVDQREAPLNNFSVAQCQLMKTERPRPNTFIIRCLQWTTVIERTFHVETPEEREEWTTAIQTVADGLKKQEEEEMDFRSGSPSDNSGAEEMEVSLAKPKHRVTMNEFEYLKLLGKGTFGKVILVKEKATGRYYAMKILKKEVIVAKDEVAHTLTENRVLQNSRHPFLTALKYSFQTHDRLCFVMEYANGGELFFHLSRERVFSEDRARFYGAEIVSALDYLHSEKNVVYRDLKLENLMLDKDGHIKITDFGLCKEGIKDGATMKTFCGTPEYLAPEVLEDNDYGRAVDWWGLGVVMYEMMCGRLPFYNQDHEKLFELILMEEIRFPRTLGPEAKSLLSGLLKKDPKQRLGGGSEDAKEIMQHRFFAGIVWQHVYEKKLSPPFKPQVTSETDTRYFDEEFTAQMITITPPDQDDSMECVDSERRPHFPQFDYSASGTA

- residual activity ([1]; compound 0.1 µM): 105%
- residual activity ([1]; compound 1.0 µM): 100%
- residual activity ([1]; compound 10.0 µM): 69%
- residual activity (BRSK2 (human); compound 0.1 µM): 100%
- residual activity (BRSK2 (human); compound 1.0 µM): 94.8%
- residual activity (BRSK2 (human); compound 10.0 µM): 88.8%
- residual activity (EEF2K (human); compound 0.1 µM): 110%
- residual activity (EEF2K (human); compound 1.0 µM): 102%
- residual activity (EEF2K (human); compound 10.0 µM): 100%
- residual activity (EPHA4 (human); compound 0.1 µM): 96.3%
- residual activity (EPHA4 (human); compound 1.0 µM): 28.7%
- residual activity (EPHA4 (human); compound 10.0 µM): 7.58%
- residual activity (EPHB1 (human); compound 0.1 µM): 111%
- residual activity (EPHB1 (human); compound 1.0 µM): 106%
- residual activity (EPHB1 (human); compound 10.0 µM): 66.9%
- residual activity (EPHB2 (human); compound 0.1 µM): 88.5%
- residual activity (EPHB2 (human); compound 1.0 µM): 23.4%
- residual activity (EPHB2 (human); compound 10.0 µM): 3.11%
- residual activity (EPHB3 (human); compound 0.1 µM): 96.6%
- residual activity (EPHB3 (human); compound 1.0 µM): 29.5%
- residual activity (EPHB3 (human); compound 10.0 µM): 7.66%
- residual activity (ERBB4 (human); compound 0.1 µM): 105%
- residual activity (ERBB4 (human); compound 1.0 µM): 76.8%
- residual activity (ERBB4 (human); compound 10.0 µM): 36.9%
- residual activity (FGFR1 (human); compound 0.1 µM): 79.1%
- residual activity (FGFR1 (human); compound 1.0 µM): 23.5%
- residual activity (FGFR1 (human); compound 10.0 µM): 8.48%
- residual activity (FLT1 (human); compound 0.1 µM): 69.5%
- residual activity (FLT1 (human); compound 1.0 µM): 15.2%
- residual activity (FLT1 (human); compound 10.0 µM): 2.74%
- residual activity (HIPK1 (human); compound 0.1 µM): 95%
- residual activity (HIPK1 (human); compound 1.0 µM): 70.8%
- residual activity (HIPK1 (human); compound 10.0 µM): 28.7%
- residual activity (IKBKE (human); compound 0.1 µM): 106%
- residual activity (IKBKE (human); compound 1.0 µM): 96.6%
- residual activity (IKBKE (human); compound 10.0 µM): 80.1%
- residual activity (INSR (human); compound 0.1 µM): 86.1%
- residual activity (INSR (human); compound 1.0 µM): 81.6%
- residual activity (INSR (human); compound 10.0 µM): 18%
- residual activity (IRAK1 (human); compound 0.1 µM): 80.9%
- residual activity (IRAK1 (human); compound 1.0 µM): 72.2%
- residual activity (IRAK1 (human); compound 10.0 µM): 33.4%
- residual activity (MAPK1 (human); compound 0.1 µM): 101%
- residual activity (MAPK1 (human); compound 1.0 µM): 102%
- residual activity (MAPK1 (human); compound 10.0 µM): 106%
- residual activity (MAPK12 (human); compound 1.0 µM): 37.8%
- residual activity (MAPK12 (human); compound 10.0 µM): 10.8%
- residual activity (MAPK13 (human); compound 0.1 µM): 98.7%
- residual activity (MAPK13 (human); compound 1.0 µM): 33.7%
- residual activity (MAPK13 (human); compound 10.0 µM): 7.2%
- residual activity (MAPK8 (human); compound 0.1 µM): 93.8%
- residual activity (MAPK8 (human); compound 1.0 µM): 61.6%
- residual activity (MAPK8 (human); compound 10.0 µM): 14.4%
- residual activity (MARK2 (human); compound 0.1 µM): 92.7%
- residual activity (MARK2 (human); compound 1.0 µM): 74.5%
- residual activity (MARK2 (human); compound 10.0 µM): 85.5%
- residual activity (MARK4 (human); compound 0.1 µM): 116%
- residual activity (MARK4 (human); compound 1.0 µM): 104%
- residual activity (MARK4 (human); compound 10.0 µM): 88.7%
- residual activity ([2]; compound 0.1 µM): 116%
- residual activity ([2]; compound 1.0 µM): 100%
- residual activity ([2]; compound 10.0 µM): 68.6%
- residual activity (PAK4 (human); compound 0.1 µM): 109%
- residual activity (PAK4 (human); compound 1.0 µM): 99.4%
- residual activity (PAK4 (human); compound 10.0 µM): 77.8%
- residual activity (PDPK1 (human); compound 0.1 µM): 101% and 98%
- residual activity (PDPK1 (human); compound 1.0 µM): 100% and 86.1%
- residual activity (PHKG1 (human); compound 0.1 µM): 102%
- residual activity (PHKG1 (human); compound 1.0 µM): 112%
- residual activity (PHKG1 (human); compound 10.0 µM): 102%
- residual activity (PRKAA1 or PRKAA2 (rat); compound 0.1 µM): 106%
- residual activity (PRKAA1 or PRKAA2 (rat); compound 1.0 µM): 91.7%
- residual activity (PRKAA1 or PRKAA2 (rat); compound 10.0 µM): 85.2%
- residual activity (PRKCG (human); compound 0.1 µM): 108%
- residual activity (PRKCG (human); compound 1.0 µM): 102%
- residual activity (PRKCG (human); compound 10.0 µM): 106%
- residual activity ([3]; compound 0.1 µM): 101%
- residual activity ([3]; compound 1.0 µM): 72.8%
- residual activity ([3]; compound 10.0 µM): 52.1%
- residual activity (SRC (human); compound 0.1 µM): 66.5%
- residual activity (SRC (human); compound 1.0 µM): 9.72%
- residual activity (SRC (human); compound 10.0 µM): 2.65%
Compound: CCN1CCN(Cc2ccc(NC(=O)c3ccc(C)c(Oc4ccnc5[nH]ccc45)c3)cc2C(F)(F)F)CC1
